From US20040034009A1, “1,6-Fused uracil derivatives as matrix metalloproteinase inhibitors” (priority 2002, published 2004)

Target: human MMP-13 catalytic domain (hMMP-13CD) (Homo sapiens, UniProt P45452)
Test: Inhibition of MMP-13 catalytic domain (thiopeptolide substrate assay)
Format: biochemical
Text: The assays measure the amount by which a test compound reduces the hydrolysis of a thiopeptolide substrate catalyzed by a matrix metalloproteinase enzyme. Such assays are described in detail by Ye et al., in Biochemistry, 1992;31(45):11231-11235, which is incorporated herein by reference. One such assay is described below in Biological Method 1.
Thiopeptolide substrates show virtually no decomposition or hydrolysis at or below neutral pH in the absence of a matrix metalloproteinase enzyme. A typical thiopeptolide substrate commonly utilized for assays is Ac-Pro-Leu-Gly-thioester-Leu-Leu-Gly-OEt. […] The change in absorbance at 405 nm is monitored on a Thermo Max microplate reader (molecular Devices, Menlo Park, Calif.) at room temperature (22° C.). […]
Some representative compounds of Formula I have been evaluated for their ability to inhibit MMP-13. Inhibitor activity versus other MMPs with the compounds may be determined using, for example, MMP-1FL, which refers to full length interstitial collagenase; MMP-2FL, which refers to full length Gelatinase A; MMP-3CD, which refers to the catalytic domain of stromelysin; MMP-7FL, which refers to full length matrilysin; MMP-9FL, which refers to full length Gelatinase B; MMP-13CD, which refers to the catalytic domain of collagenase 3; and MMP-14CD, which refers to the catalytic domain of MMP-14. […]

O=C(O)c1ccc(Cn2ccc3ccc(C#CCn4ccnn4)cc3c2=O)cc1 [4-[1-oxo-7-(3-[1,2,3]triazol-1-ylprop-1-ynyl)-1H-isoquinolin-2-ylmethyl]benzoic acid]
IC50: > 50 µM
